Results as given in ChEMBL document CHEMBL3044827, “Synthesis and in vitro anti-Helicobacter pylori activity of 2-[(chlorobenzyl)thio]-5-(5-nitro-2-furyl)-1,3,4-thiadiazoles” (2008).

Test system: Helicobacter pylori
Assay: Antibacterial activity against Helicobacter pylori at 32 ug/disk after 3 to 5 days by paper disk diffusion method
Format: functional
Settings: read-out: DIZ

Compound | zone of inhibition at 32 µg/disc [mm]
O=[N+]([O-])c1ccc(-c2nnc(SCc3ccccc3Cl)s2)o1 | 21.4
O=[N+]([O-])c1ccc(-c2nnc(SCc3c(Cl)cccc3Cl)s2)o1 | 23.7
O=[N+]([O-])c1ccc(-c2nnc(SCc3ccccc3)s2)o1 | 24.1
O=[N+]([O-])c1ccc(-c2nnc(SCc3cccc(Cl)c3)s2)o1 | 25.8

Test system: Helicobacter pylori
Assay: Antibacterial activity against Helicobacter pylori at 4 ug/disk after 3 to 5 days by paper disk diffusion method
Format: functional
Settings: read-out: DIZ

Compound | zone of inhibition at 4 µg/disc [mm]
O=[N+]([O-])c1ccc(-c2nnc(SCc3ccccc3Cl)s2)o1 | 11.3
O=[N+]([O-])c1ccc(-c2nnc(SCc3c(Cl)cccc3Cl)s2)o1 | 15.2
O=[N+]([O-])c1ccc(-c2nnc(SCc3ccccc3)s2)o1 | 14.7
O=[N+]([O-])c1ccc(-c2nnc(SCc3cccc(Cl)c3)s2)o1 | 18.4

Test system: Helicobacter pylori
Assay: Antibacterial activity against metronidazole-resistant Helicobacter pylori at 16 ug/disk after 3 to 5 days by paper disk diffusion method
Format: functional
Settings: read-out: DIZ

Compound | zone of inhibition at 16 µg/disc [mm]
O=[N+]([O-])c1ccc(-c2nnc(SCc3ccccc3Cl)s2)o1 | 20
O=[N+]([O-])c1ccc(-c2nnc(SCc3cccc(Cl)c3Cl)s2)o1 | 6
O=[N+]([O-])c1ccc(-c2nnc(SCc3c(Cl)cccc3Cl)s2)o1 | 21
O=[N+]([O-])c1ccc(-c2nnc(SCc3ccc(Cl)cc3)s2)o1 | 17
O=[N+]([O-])c1ccc(-c2nnc(SCc3ccccc3)s2)o1 | 22
O=[N+]([O-])c1ccc(-c2nnc(SCc3ccc(Cl)cc3Cl)s2)o1 | 6
O=[N+]([O-])c1ccc(-c2nnc(SCc3ccc(Cl)c(Cl)c3)s2)o1 | 6
O=[N+]([O-])c1ccc(-c2nnc(SCc3cccc(Cl)c3)s2)o1 | 22

Test system: Helicobacter pylori
Assay: Antibacterial activity against metronidazole-sensitive Helicobacter pylori at 8 ug/disk after 3 to 5 days by paper disk diffusion method
Format: functional
Settings: read-out: DIZ

Compound | zone of inhibition at 8 µg/disc [mm]
O=[N+]([O-])c1ccc(-c2nnc(SCc3ccccc3Cl)s2)o1 | 19
O=[N+]([O-])c1ccc(-c2nnc(SCc3cccc(Cl)c3Cl)s2)o1 | 15
O=[N+]([O-])c1ccc(-c2nnc(SCc3c(Cl)cccc3Cl)s2)o1 | 21
O=[N+]([O-])c1ccc(-c2nnc(SCc3ccc(Cl)cc3)s2)o1 | 6
O=[N+]([O-])c1ccc(-c2nnc(SCc3ccccc3)s2)o1 | 18
O=[N+]([O-])c1ccc(-c2nnc(SCc3ccc(Cl)cc3Cl)s2)o1 | 13
O=[N+]([O-])c1ccc(-c2nnc(SCc3ccc(Cl)c(Cl)c3)s2)o1 | 11
O=[N+]([O-])c1ccc(-c2nnc(SCc3cccc(Cl)c3)s2)o1 | 21

Test system: Helicobacter pylori
Assay: Antibacterial activity against Helicobacter pylori at 0.5 ug/disk after 3 to 5 days by paper disk diffusion method
Format: functional
Settings: read-out: DIZ

Compound | zone of inhibition at 0.5 µg/disc [mm]
O=[N+]([O-])c1ccc(-c2nnc(SCc3ccccc3Cl)s2)o1 | 6.8
O=[N+]([O-])c1ccc(-c2nnc(SCc3c(Cl)cccc3Cl)s2)o1 | 8.7
O=[N+]([O-])c1ccc(-c2nnc(SCc3ccccc3)s2)o1 | 6.7
O=[N+]([O-])c1ccc(-c2nnc(SCc3cccc(Cl)c3)s2)o1 | 10.3

Test system: Helicobacter pylori
Assay: Antibacterial activity against Helicobacter pylori at 2 ug/disk after 3 to 5 days by paper disk diffusion method
Format: functional
Settings: read-out: DIZ

Compound | zone of inhibition at 2 µg/disc [mm]
O=[N+]([O-])c1ccc(-c2nnc(SCc3ccccc3Cl)s2)o1 | 9.4
O=[N+]([O-])c1ccc(-c2nnc(SCc3c(Cl)cccc3Cl)s2)o1 | 13.1
O=[N+]([O-])c1ccc(-c2nnc(SCc3ccccc3)s2)o1 | 12.1
O=[N+]([O-])c1ccc(-c2nnc(SCc3cccc(Cl)c3)s2)o1 | 15.8

Test system: Helicobacter pylori
Assay: Antibacterial activity against Helicobacter pylori at 16 ug/disk after 3 to 5 days by paper disk diffusion method
Format: functional
Settings: read-out: DIZ

Compound | zone of inhibition at 16 µg/disc [mm]
O=[N+]([O-])c1ccc(-c2nnc(SCc3ccccc3Cl)s2)o1 | 18.9
O=[N+]([O-])c1ccc(-c2nnc(SCc3c(Cl)cccc3Cl)s2)o1 | 21.9
O=[N+]([O-])c1ccc(-c2nnc(SCc3ccccc3)s2)o1 | 21
O=[N+]([O-])c1ccc(-c2nnc(SCc3cccc(Cl)c3)s2)o1 | 24.1

Test system: Helicobacter pylori
Assay: Antibacterial activity against metronidazole-sensitive Helicobacter pylori at 16 ug/disk after 3 to 5 days by paper disk diffusion method
Format: functional
Settings: read-out: DIZ

Compound | zone of inhibition at 16 µg/disc [mm]
O=[N+]([O-])c1ccc(-c2nnc(SCc3ccccc3Cl)s2)o1 | 21
O=[N+]([O-])c1ccc(-c2nnc(SCc3cccc(Cl)c3Cl)s2)o1 | 16
O=[N+]([O-])c1ccc(-c2nnc(SCc3c(Cl)cccc3Cl)s2)o1 | 23
O=[N+]([O-])c1ccc(-c2nnc(SCc3ccc(Cl)cc3)s2)o1 | 16
O=[N+]([O-])c1ccc(-c2nnc(SCc3ccccc3)s2)o1 | 22
O=[N+]([O-])c1ccc(-c2nnc(SCc3ccc(Cl)cc3Cl)s2)o1 | 15
O=[N+]([O-])c1ccc(-c2nnc(SCc3ccc(Cl)c(Cl)c3)s2)o1 | 13
O=[N+]([O-])c1ccc(-c2nnc(SCc3cccc(Cl)c3)s2)o1 | 25

Test system: Helicobacter pylori
Assay: Antibacterial activity against Helicobacter pylori at 8 ug/disk after 3 to 5 days by paper disk diffusion method
Format: functional
Settings: read-out: DIZ

Compound | zone of inhibition at 8 µg/disc [mm]
O=[N+]([O-])c1ccc(-c2nnc(SCc3ccccc3Cl)s2)o1 | 17.1
Cc1ncc([N+](=O)[O-])n1CCO [METRONIDAZOLE] | 16.3
O=[N+]([O-])c1ccc(-c2nnc(SCc3c(Cl)cccc3Cl)s2)o1 | 19.4
O=[N+]([O-])c1ccc(-c2nnc(SCc3ccccc3)s2)o1 | 17.4
O=[N+]([O-])c1ccc(-c2nnc(SCc3cccc(Cl)c3)s2)o1 | 20.6

Test system: Helicobacter pylori
Assay: Antibacterial activity against metronidazole-resistant Helicobacter pylori at 32 ug/disk after 3 to 5 days by paper disk diffusion method
Format: functional
Settings: read-out: DIZ

Compound | zone of inhibition at 32 µg/disc [mm]
O=[N+]([O-])c1ccc(-c2nnc(SCc3ccccc3Cl)s2)o1 | 22
O=[N+]([O-])c1ccc(-c2nnc(SCc3cccc(Cl)c3Cl)s2)o1 | 17
O=[N+]([O-])c1ccc(-c2nnc(SCc3c(Cl)cccc3Cl)s2)o1 | 24
O=[N+]([O-])c1ccc(-c2nnc(SCc3ccc(Cl)cc3)s2)o1 | 17
O=[N+]([O-])c1ccc(-c2nnc(SCc3ccccc3)s2)o1 | 25
O=[N+]([O-])c1ccc(-c2nnc(SCc3ccc(Cl)cc3Cl)s2)o1 | 6
O=[N+]([O-])c1ccc(-c2nnc(SCc3ccc(Cl)c(Cl)c3)s2)o1 | 12
O=[N+]([O-])c1ccc(-c2nnc(SCc3cccc(Cl)c3)s2)o1 | 25

Test system: Helicobacter pylori
Assay: Antibacterial activity against Helicobacter pylori at 1 ug/disk after 3 to 5 days by paper disk diffusion method
Format: functional
Settings: read-out: DIZ

Compound | zone of inhibition at 1 µg/disc [mm]
O=[N+]([O-])c1ccc(-c2nnc(SCc3ccccc3Cl)s2)o1 | 8.3
CC1(C)S[C@@H]2[C@H](NC(=O)[C@H](N)c3ccc(O)cc3)C(=O)N2[C@H]1C(=O)O [AMOXICILLIN] | 24.5
O=[N+]([O-])c1ccc(-c2nnc(SCc3c(Cl)cccc3Cl)s2)o1 | 10.9
O=[N+]([O-])c1ccc(-c2nnc(SCc3ccccc3)s2)o1 | 9.6
O=[N+]([O-])c1ccc(-c2nnc(SCc3cccc(Cl)c3)s2)o1 | 13.1

Test system: Helicobacter pylori
Assay: Antibacterial activity against metronidazole-resistant Helicobacter pylori at 8 ug/disk after 3 to 5 days by paper disk diffusion method
Format: functional
Settings: read-out: DIZ

Compound | zone of inhibition at 8 µg/disc [mm]
O=[N+]([O-])c1ccc(-c2nnc(SCc3ccccc3Cl)s2)o1 | 18
O=[N+]([O-])c1ccc(-c2nnc(SCc3cccc(Cl)c3Cl)s2)o1 | 6
O=[N+]([O-])c1ccc(-c2nnc(SCc3c(Cl)cccc3Cl)s2)o1 | 20
O=[N+]([O-])c1ccc(-c2nnc(SCc3ccc(Cl)cc3)s2)o1 | 16
O=[N+]([O-])c1ccc(-c2nnc(SCc3ccccc3)s2)o1 | 19
O=[N+]([O-])c1ccc(-c2nnc(SCc3ccc(Cl)cc3Cl)s2)o1 | 6
O=[N+]([O-])c1ccc(-c2nnc(SCc3ccc(Cl)c(Cl)c3)s2)o1 | 6
O=[N+]([O-])c1ccc(-c2nnc(SCc3cccc(Cl)c3)s2)o1 | 20

Test system: Helicobacter pylori
Assay: Antibacterial activity against metronidazole-sensitive Helicobacter pylori at 32 ug/disk after 3 to 5 days by paper disk diffusion method
Format: functional
Settings: read-out: DIZ

Compound | zone of inhibition at 32 µg/disc [mm]
O=[N+]([O-])c1ccc(-c2nnc(SCc3ccccc3Cl)s2)o1 | 21
O=[N+]([O-])c1ccc(-c2nnc(SCc3cccc(Cl)c3Cl)s2)o1 | 16
O=[N+]([O-])c1ccc(-c2nnc(SCc3c(Cl)cccc3Cl)s2)o1 | 26
O=[N+]([O-])c1ccc(-c2nnc(SCc3ccc(Cl)cc3)s2)o1 | 19
O=[N+]([O-])c1ccc(-c2nnc(SCc3ccccc3)s2)o1 | 25
O=[N+]([O-])c1ccc(-c2nnc(SCc3ccc(Cl)cc3Cl)s2)o1 | 15
O=[N+]([O-])c1ccc(-c2nnc(SCc3ccc(Cl)c(Cl)c3)s2)o1 | 15
O=[N+]([O-])c1ccc(-c2nnc(SCc3cccc(Cl)c3)s2)o1 | 28
